Measured values published in US20240197716A1, “TREATMENTS FOR CUSHING'S SYNDROME THAT DO NOT SIGNIFICANTLY AFFECT CARDIAC RHYTHMS” (Corcept Therapeutics Incorporated, priority 2022, published 2024).
Where “and” joins values, the source holds several entries; their conditions need not be identical. Identical values can stand only once.

Test system: cardiac repolarization in healthy volunteers
Assay: Thorough QT/QTc (TQT) study (NCT04795479), cardiodynamic Holter ECG
Conditions: for ΔΔQTcF Estimate (msec) (90% CI), predicted at geometric mean Cmax: PK/QTc population
Description: These studies included a randomized, partial double-blind, placebo- and positive-controlled, multiple-dose, 4-way crossover, thorough QT/QTc (TQT) study to investigate the effect of relacorilant on cardiac repolarization. These studies measured placebo-corrected change-from-baseline QTcF (ΔΔQTcF); change-from-baseline of QTcF, HR, and PR and QRS intervals (ΔQTcF, ΔHR, ΔPR, and ΔQRS); placebo-corrected change-from-baseline of HR, and PR and QRS intervals (ΔΔHR, ΔΔPR, and ΔΔQRS); categorical outliers for QTcF, HR, and PR and QRS intervals; the frequency of treatment-emergent changes of T-wave morphology and presence of U-waves; PK parameters of relacorilant and its metabolites (CORT125337, CORT125336, and CORT125295) and moxifloxacin; safety profiles, including AEs/SAEs, physical examination, clinical chemistry, hematology, urinalysis, ECG, and vital signs.
A phase 1, randomized, partial double-blind, crossover thorough QT study (NCT04795479) to assess the effect of multiple doses of relacorilant on cardiac repolarization in healthy volunteers. Participants were randomized to dosing sequences to receive relacorilant at therapeutic (400 mg QD, n=25) or supra-therapeutic (800 mg QD, n=28) doses, or placebo (n=29) for 5 days. Moxifloxacin (400 mg single dose, n=28) was used as a positive control.
Each subject received 4 treatments in a randomized sequence during the study period. Each dosing consisted of 8 capsules (except for moxifloxacin on Day 5), including: • Treatment T: Multiple oral doses of 400 mg relacorilant (4 capsules)+placebo for relacorilant (4 capsules) once daily for 5 days; • Treatment ST: Multiple oral doses of 800 mg relacorilant (8 capsules) once daily for 5 days; • Treatment P: Multiple oral doses of placebo for relacorilant (8 capsules) once daily for 5 days; • Treatment M: Multiple oral doses of placebo for relacorilant (8 capsules) once daily for 4 days and a final single oral dose of 400 mg moxifloxacin (one tablet) on Day 5.
In a portion of present study conducted in healthy subjects, a single dose of moxifloxacin (400 mg; Treatment M) on the last day of its respective treatment period was included as a positive control to determine the sensitivity of the study to detect small QTc changes. Relacorilant doses included both a therapeutic dose level (400 mg; Treatment T) and a supra-therapeutic dose level (800 mg; Treatment ST). The study was blinded to subjects, investigator, study staff, and sponsor with respect to relacorilant (Treatments T and ST) and placebo for relacorilant (Treatment P); it was open-labeled for moxifloxacin (Treatment M). Enrolled subjects were randomized to one of twelve (12) dosing sequences to receive 4 different treatments according to the assigned dosing sequence as shown below:
In each period, subjects were admitted to the clinical site in the morning of Day-1 and stayed in the site until the morning of Day 6. In the study periods when subjects were randomized to Treatment T, ST, or P, the applicable study product (400 mg or 800 mg relacorilant or placebo for relacorilant) were taken once daily in the morning for 5 consecutive days. During the dosing period of positive control (Treatment M), placebo for relacorilant were administered on Days 1 to 4 to align with the dosing schedule for the other three treatments and moxifloxacin were administered in an open-labeled manner as a single dose in the morning of Day 5. Therefore, the treatment on Days 1 to 4 were double-blinded; it was not known before the morning on Day 5 whether or not a subject was allocated to receive moxifloxacin. Each dosing period (from Periods 2 to 4) was separated from the previous period by a washout period of at least 10 days from Day 6 of the previous period to Day 1 (first dose) of the subsequent period to prevent a carryover effect. The final visit was on Day 6 of Period 4. A safety phone follow-up was scheduled at 7 days (±2 days) post the final visit/early termination (ET) visit.

**Q.** Which results are given for Cn1cc(S(=O)(=O)N2CCC3=Cc4c(cnn4-c4ccc(F)cc4)C[C@]3(C(=O)c3cc(C(F)(F)F)ccn3)C2)cn1 [relacorilant, ((R)-(1-(4-fluorophenyl)-6-((1-methyl-1H-pyrazol-4-yl)sulfonyl)-4,4a,5,6,7,8-hexahydro-1H-pyrazolo[3,4-g]isoquinolin-4a-yl)(4-(trifluoromethyl)pyridine-2-yl)methanone)]?
**A.** ΔΔQTcF Estimate (msec) (90% CI), predicted at geometric mean Cmax (400 mg (Day 5)): -3.02 ms; ΔΔQTcF Estimate (msec) (90% CI), predicted at geometric mean Cmax (400 mg (Day 5), listed as Relacorilant): −3.02 (−4.16, −1.88)^1 msec; effect on HR (400 mg and 800 mg QD): did not have a clinically relevant effect on HR; ΔΔQTcF Estimate (msec) (90% CI), predicted at geometric mean Cmax (800 mg (Day 5)): -3.87 ms; ΔΔQTcF Estimate (msec) (90% CI), predicted at geometric mean Cmax (800 mg (Day 5), listed as Relacorilant): −3.87 (−5.56, −2.17)^1 msec; LS mean placebo-corrected ΔHR, highest across post-dose time points (2 hours post-dose on Day 5, 800 mg treatment): 2.4 bpm; LS mean placebo-corrected ΔHR, lowest across post-dose time points (12 hours post-dose on Day 1, 800 mg treatment): −3.2 bpm; tolerability (Across all 3 studies (First-in-Human, TQT, and CS studies)): well tolerated; effect on ΔΔQTcF exceeding the 10-msec threshold (concentration-QTc modeling, plasma concentrations up to ˜4500 ng/mL): excluded; estimated slope (90% CI) of plasma concentration in the concentration-QTc relationship (linear mixed-effects model): −0.97(−1.68, −0.25) ×10^−3 msec/ng/ml and −0.97 ×10^−3 msec/ng/ml; effect on ECG parameters (therapeutic (400 mg) and supra-therapeutic (800 mg) doses): no adverse effects on ECG parameters
